Measured values: US9289607B2, “Urgency therapy with neuromodulation and C-afferent nerve desensitization” (MEDTRONIC, INC., priority 2010, dated 2016)

Columns and labels:
Format in all cases: in vivo, Sprague-Dawley rats
[1] = test system: bladder rhythmic contraction; experiment: Bladder rhythmic contraction with L6 spinal nerve stimulation after capsaicin pretreatment
Experimental: Female Sprague-Dawley rats weighing approximately 200-300 grams (g) were anesthetized with urethane (in particular, two injections, approximately 4 min apart, total 1.2 g urethane/kilogram (kg) rat). The anesthetized rats were maintained with a hot-water-circulating heating pad during the studies.
To record bladder contractions, a polyethylene cannula (IntraMedic PE50 tubing, Stoelting Co., Wood Dale, Ill.), was placed into the bladder of each of the rats via the urethra and the urethra was ligated to ensure an isovolumetric bladder. The urethral cannula was connected with a T connector and linked with a low volume transducer (ADInstrument MLT0380/D, Colorado Springs, Colo.). The signal was amplified through a DC amplifier (ADInstrument, ML119, Colorado Springs, Colo.). The other end of the T connector was linked to a 20 cubic centimeters (cc) syringe with a perfusion pump.
To deliver electrical stimulation, a wire electrode was placed under the L6 spinal nerves of each of the rats bilaterally. The dorsal skin around sacral and thoracic surface was shaved and a dorsal midline incision was made from approximately spinal nerve L3 to S2. A combination of sharp and blunt dissection was used to expose the left L6/S1 posterior interarticular process. The S1 transverse process was visualized and removed, and the L6 nerves were located caudal and medial to the sacroiliac junction and were then exposed distal to their emergence from the intervertebral foramina. Two bared portions of a teflon-coated, 40-gauge, stainless steel wire (Cooner Wire Co., Chatsworth, Calif.) were placed bilaterally under each of the L6 nerve. A silicone adhesive (Kwik-Cast, World Precision Instruments, Inc, Sarasota, Fla.) was applied to cover the wire around the nerve. The muscle and incision were closed with silk suture. The wire electrode and a needle electrode under the skin of the tail served as the stimulating cathode and the indifferent anode, respectively.
Biphasic pulses having a pulse width of about 0.1 ms and different intensities were used to stimulate the spinal nerve at frequencies ranging from 0.01 Hz to 100 Hz. A Grass S88 stimulator (Grass Technologies, West Warwick, R.I.) with an SIU5 stimulus isolator (Grass Technologies, West Warwick, R.I.) was used to generate stimulus pulses. Electrical stimulation of spinal nerves with pulses of sufficient intensity evoked hind-toe twitches and pelvic floor muscle contractions. In each rat, the motor threshold, defined by the lowest intensity to evoke any of those muscle contractions was tested. The rats with motor threshold over 0.4 mA were excluded from the study. The intensities of stimulation were given either at 0.6 mA or threshold intensity, which was adjusted until the muscle contraction was just discernible in each animal.
(§1) Thirty-two rats were chronically treated with capsaicin or vehicle (e.g., solution without capsaicin added). Capsaicin (Sigma-Aldrich, St. Louis, Mo.) was administered to the rats in a vehicle solution containing approximately 20 milligrams (mg)/milliliters (mL) capsaicin in a mixture of approximately 10% ethanol, approximately 10% Tween 80 and approximately 80% physiological saline. For each of the rats, capsaicin (125 mg/kg) was given subcutaneously in the hindlimb in divided doses on 2 consecutive days: on the first day, a first dose of 25 mg/kg was administered, and, twelve hours later, a second dose of 50 mg/kg was administered, and on the second day, a third dose of 50 mg/kg was administered. Injections were performed under isoflurane anesthesia. Control rats received a corresponding volume of vehicles. Experiments on the effect of neurostimulation on rhythmic bladder contraction were conducted approximately 4 days after injection of the third dose was administered. To evaluate the effectiveness of capsaicin pretreatment, an eye wipe test was performed on each unanesthetized animal just before the experiment. […]

[2] = Eye wipe test of capsaicin pretreatment effectiveness; conditions: drop of 100 μg/mL capsaicin solution in eye; rats pretreated with capsaicin 125 mg/kg s.c.; 16 rats
Experimental: as §1, with “experiment. A drop of approximately 100 microgram per milliliter (μg/mL) capsaicin solution was instilled into an eye of the animal and the number of defensive wiping movements was counted.” for “experiment.”

[3] = Behaviour after subcutaneous capsaicin injection
Experimental: as §1, with “experiment. A drop of approximately 100 microgram per milliliter (μg/mL) capsaicin solution was instilled into an eye of the animal and the number of defensive wiping movements was counted.” for “experiment.”

[4] = capsaicin 125 mg/kg s.c. pretreatment 4 days before, mean control before stimulation, 8 rats, mean±SEM
[5] = capsaicin 125 mg/kg s.c. pretreatment, stimulation approximately 0.6 mA, 0.5 Hz

COc1cc(CNC(=O)CCCC/C=C/C(C)C)ccc1O [capsaicin, Capsaicin]
average amplitude of bladder contractions prior to neurostimulation [1, 4]: approximately 19.24±1.89 mmHg
mean frequency of bladder contractions prior to neurostimulation [1, 4]: approximately 3.19±0.20 contractions per 5 minutes
persistence of inhibition after stimulation was terminated (FIG. 12A) [1, 5]: more than 20 minutes
rhythmic bladder contractions during spinal nerve stimulation (FIG. 12A) [1, 5]: substantially completely inhibited
bladder contractions with spinal nerve stimulation at threshold intensity (FIG. 12B) ([1]; capsaicin 125 mg/kg s.c. pretreatment, threshold intensity about 0.01 mA, about 10 Hz, particularly after termination of stimulation): attenuated bladder contractions
frequency of the bladder rhythmic contraction ([1]; capsaicin approximately 125 mg/kg s.c. pretreatment, stimulation approximately 0.6 mA, six rats, p<0.05 vs vehicle pretreated, two-way ANOVA (FIG. 13A)): 18±14 % of control
mean frequency and amplitude of bladder contractions, capsaicin-treated versus vehicle-treated rats ([1]; prior to delivery of neurostimulation): did not differ
effect on bladder rhythmic contraction of stimulation at threshold intensity (FIG. 13B) ([1]; threshold intensity approximately 0.01 mA, believed not statistically significant): trend of inhibitory effects
reaction in the eye wipe test (defensive wiping movements) [2]: no reaction
aversive behaviours thereafter ([3]; after the first 3-4 hours, capsaicin 125 mg/kg s.c. in divided doses over 2 days): no aversive behaviors were observed
behaviour following the first capsaicin injection ([3]; approximately 3-4 hours after first capsaicin injection (25 mg/kg s.c., hindlimb)): signs of pain behaviors
